In the supplement of paper PMC10307832:

Legend:
Test in all cases: relative viability (nuclei count vs DMSO), 5 days (fraction); higher = more cells survive
Dinaciclib + Trametinib = compound: CCc1cnn2c(NCc3ccc[n+]([O-])c3)cc(N3CCCC[C@H]3CCO)nc12 [Dinaciclib] + CC(=O)Nc1cccc(-n2c(=O)n(C3CC3)c(=O)c3c(Nc4ccc(I)cc4F)n(C)c(=O)c(C)c32)c1 [Trametinib] (partner 0.02 µM)
In short: (§1)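 Relative viability is defined as nuclei in treated wells over nuclei in vehicle wells. Duplicate plates were run and medians reported. Lung cancer cell lines in 1536-well plates were dosed by pin tool one day after seeding, with one drug or with a fixed anchor-drug dose plus five library-drug doses (not always all listed) in √10 steps, and nuclei were counted after 5 days.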

Dinaciclib + Pictilisib = compound: CCc1cnn2c(NCc3ccc[n+]([O-])c3)cc(N3CCCC[C@H]3CCO)nc12 [Dinaciclib] + CS(=O)(=O)N1CCN(Cc2cc3nc(-c4cccc5[nH]ncc45)nc(N4CCOCC4)c3s2)CC1 [Pictilisib] (partner 1 µM)
In short: as §1

Dinaciclib + Crizotinib = compound: CCc1cnn2c(NCc3ccc[n+]([O-])c3)cc(N3CCCC[C@H]3CCO)nc12 [Dinaciclib] + C[C@@H](Oc1cc(-c2cnn(C3CCNCC3)c2)cnc1N)c1c(Cl)ccc(F)c1Cl [Crizotinib] (partner 1 µM)
In short: as §1

Dinaciclib + AZD7762 = compound: CCc1cnn2c(NCc3ccc[n+]([O-])c3)cc(N3CCCC[C@H]3CCO)nc12 [Dinaciclib] + NC(=O)Nc1cc(-c2cccc(F)c2)sc1C(=O)N[C@H]1CCCNC1 [AZD7762] (partner 0.2 µM)
In short: as §1

Dinaciclib + Olaparib = compound: CCc1cnn2c(NCc3ccc[n+]([O-])c3)cc(N3CCCC[C@H]3CCO)nc12 [Dinaciclib] + O=C(c1cc(Cc2n[nH]c(=O)c3ccccc23)ccc1F)N1CCN(C(=O)C2CC2)CC1 [Olaparib] (partner 8 µM)
In short: as §1

Cell Line | relative viability (Dinaciclib + Trametinib; first compound 0.009487 µM) | relative viability (Dinaciclib + Trametinib; first compound 0.03 µM) | relative viability (Dinaciclib + Trametinib; first compound 0.09487 µM) | relative viability (Dinaciclib + Trametinib; first compound 0.3 µM) | relative viability (Dinaciclib + Pictilisib; first compound 0.009487 µM) | relative viability (Dinaciclib + Pictilisib; first compound 0.03 µM) | relative viability (Dinaciclib + Pictilisib; first compound 0.09487 µM) | relative viability (Dinaciclib + Pictilisib; first compound 0.3 µM) | relative viability (Dinaciclib + Crizotinib; first compound 0.009487 µM) | relative viability (Dinaciclib + Crizotinib; first compound 0.03 µM) | relative viability (Dinaciclib + Crizotinib; first compound 0.09487 µM) | relative viability (Dinaciclib + Crizotinib; first compound 0.3 µM) | relative viability (Dinaciclib + AZD7762; first compound 0.009487 µM) | relative viability (Dinaciclib + AZD7762; first compound 0.03 µM) | relative viability (Dinaciclib + AZD7762; first compound 0.09487 µM) | relative viability (Dinaciclib + AZD7762; first compound 0.3 µM) | relative viability (Dinaciclib + Olaparib; first compound 0.009487 µM) | relative viability (Dinaciclib + Olaparib; first compound 0.03 µM) | relative viability (Dinaciclib + Olaparib; first compound 0.09487 µM) | relative viability (Dinaciclib + Olaparib; first compound 0.3 µM)
LXF-289 | 0.682 | 0.307 | 0.0823 | 0.103 | 0.843 | 0.0778 | 0.0596 | 0.0483 | 0.754 | 0.274 | 0.0748 | 0.0784 | 1.18 | 0.453 | 0.0752 | 0.0836 | 1.01 | 0.103 | 0.0785 | 0.0985
EKVX | 0.333 | 0.219 | 0.11 | 0.108 | 0.407 | 0.227 | 0.12 | 0.113 | 0.749 | 0.454 | 0.103 | 0.118 | 0.756 | 0.436 | 0.127 | 0.101 | 0.721 | 0.346 | 0.123 | 0.139
A-427 | 0.624 | 0.117 | 0.109 | 0.115 | 0.564 | 0.0973 | 0.0666 | 0.065 | 0.72 | 0.12 | 0.057 | 0.0481 | 0.75 | 0.161 | 0.117 | 0.102 | 0.459 | 0.104 | 0.0978 | 0.101
ChaGo-K-1 | 0.856 | 0.25 | 0.14 | 0.102 | 0.321 | 0.213 | 0.175 | 0.161 | 0.699 | 0.229 | 0.224 | 0.214 | 0.904 | 0.389 | 0.131 | 0.117 | 0.371 | 0.145 | 0.0867 | 0.0975
LCLC-97TM1 | 0.216 | 0.0795 | 0.0706 | 0.0687 | 0.209 | 0.116 | 0.109 | 0.0963 | 0.346 | 0.092 | 0.0991 | 0.103 | 0.385 | 0.0625 | 0.0497 | 0.0774 | 0.322 | 0.0664 | 0.0584 | 0.0621
NCI-H2170 | 0.885 | 0.147 | 0.133 | 0.131 | 0.27 | 0.151 | 0.163 | 0.196 | 0.86 | 0.188 | 0.157 | 0.181 | 0.705 | 0.122 | 0.108 | 0.128 | 0.429 | 0.11 | 0.0975 | 0.113
NCI-H1993 | 0.632 | 0.419 | 0.511 | 0.479 | 0.694 | 0.834 |  | 0.588 | 0.735 | 0.766 |  | 0.642 | 0.668 | 0.364 | 0.385 | 0.396 | 1.12 | 0.755 | 0.371 | 0.424
NCI-H460 | 0.0986 | 0.0124 | 0.0166 | 0.0082 | 0.264 | 0.0398 | 0.0429 | 0.0452 | 0.688 | 0.0158 | 0.0092 | 0.011 | 0.795 | 0.0353 | 0.0383 | 0.0328 | 0.409 | 0.0325 | 0.0396 | 0.0408
NCI-H1975 | 0.343 | 0.187 | 0.134 | 0.0985 | 0.166 | 0.0983 | 0.102 | 0.102 | 0.765 | 0.222 | 0.139 | 0.129 | 0.957 | 0.421 | 0.22 | 0.215 | 0.702 | 0.26 | 0.151 | 0.114
RERF-LC-KJ | 0.753 | 0.22 | 0.143 | 0.152 | 0.448 | 0.19 | 0.124 | 0.117 | 0.885 | 0.179 | 0.131 | 0.122 | 1.04 | 0.498 | 0.114 | 0.155 | 0.466 | 0.166 | 0.155 | 0.154
NCI-H322M | 0.623 | 0.36 | 0.341 | 0.391 | 0.497 | 0.262 | 0.2 | 0.583 | 1.05 | 0.66 | 0.191 | 0.182 | 0.613 | 0.409 | 0.42 | 0.394 | 0.652 | 0.304 | 0.328 | 0.321
NCI-H1651 | 0.785 | 0.668 | 0.173 | 0.072 | 0.507 | 0.115 | 0.0517 | 0.0439 | 0.941 | 0.685 | 0.188 | 0.0849 | 0.637 | 0.65 | 0.205 | 0.0865 | 0.215 | 0.202 | 0.106 | 0.059
HARA | 0.519 | 0.213 | 0.114 | 0.111 | 0.529 | 0.0709 | 0.0524 | 0.031 | 0.717 | 0.103 | 0.0536 | 0.0685 | 0.349 | 0.116 | 0.127 | 0.123 | 0.366 | 0.0835 | 0.0659 | 0.14
H3255 | 0.629 | 0.27 | 0.194 | 0.201 | 0.415 | 0.261 | 0.164 | 0.182 | 0.842 | 0.194 | 0.173 | 0.197 | 1.04 | 0.62 | 0.209 | 0.208 | 0.536 | 0.253 | 0.2 | 0.19
NCI-H441 | 0.42 | 0.156 | 0.137 | 0.114 | 0.589 | 0.126 | 0.111 | 0.115 | 0.595 | 0.134 | 0.0914 | 0.101 | 1.17 | 0.758 | 0.141 | 0.16 | 0.432 | 0.141 | 0.125 | 0.127
CAL-12T | 0.187 | 0.0992 | 0.122 | 0.11 | 0.201 | 0.105 | 0.122 | 0.116 | 0.503 | 0.0856 | 0.0861 | 0.103 | 0.565 | 0.187 | 0.14 | 0.183 | 0.589 | 0.134 | 0.13 | 0.141
